Entries after “also recorded” stand apart in the source; their conditions may differ.
Tests used:
bacterial abscesses = test: Gamma camera scintigraphy of bacterial abscesses in goats; assay type: in vivo; conditions: goat; for abscess visibility by gamma camera, adjoining bacterial abscesses of 2 months and three days old: about 1 mCi, imaged the next day
Description: Bacterial abscesses were also evoked in goats in accordance with the following procedure: 4 Droppings (faeces) of goats were stirred in 10 ml phosphate-buffered, saline solution (pH 7.2), emulsified in 10 ml mineral oil (Freund's complete adjuvant), and injected subcutaneously into four goats (2.5 ml per goat) at the left flank of the abdomen. Within a day the goats developed fever (temperature rose from 39.3° to over 40° C.) and a firm abscess with a diameter of about 10 cm. appeared.
In order to prepare granulocyte suspensions blood was sampled from a goat via the neck vein, and anticoagulated by the addition of heparin. The granulocytes were purified by a known sedimentation technique. The separation fluid consisted of: 10 Parts of Isopaque (sodium metrizoate) (32.8%) mixed with 24 parts Ficoll (Pharmacia) 8% (in H2 O). The density was: 1.077 g/ml. Equal parts of anticoagulated blood and 0.9% NaCl were mixed and 20 ml of the mixture was layered over 10 ml of Isopaque-Ficoll in a centrifuge tube. The mixture was centrifuged at 1000 g for 15 minutes. After centrifugation the mononuclear cells (monocytes and lymphocytes) were found as a narrow band at the interface between the plasma layer and the separation fluid. The layer above the erythrocyte sediment, also containing granulocytes, was removed down to 1 to 2 mm above the erythrocyte meniscus. The erythrocyte layer was mixed with a 3 to 5 fold volume of phosphate-buffered saline solution and centrifuged for 7 minutes at 1200 g. The supernatant was pipetted-off down to the erythrocyte meniscus. The erythrocytes were lysed by addition of 30 ml 155 mM NH4 Cl solution (also containing 10 mM KHCO3 0.1 mM EDTA) pH 7.4, mixing and 15 minutes storage at 4° C. After centrifugation (400 g) the granulocytes were resuspended in NH4 Cl solution (15 ml) 0.5% albumin and stored 15 minutes at 4° C. After microscopic control the cells were washed in PBS containing 0.5% albumin and were consecutively suspended in 5 ml PBS containing 0.5% albumin. In that condition the cells are ready for indium-111-oxinate labeling.
Indium-111-oxinate labeled granulocytes were made by the Thakur procedure. In this preparation 2×50 ml conical centrifuge tubes are sterilized at 120° C. for 2 hours. In-111 Cl3 (Byk-Mallinckrodt CIL B.V.) 0.1 M HCl solution (5 mCi/ml) is used. 1 ml H2 O is added for injection, as are 50 μl oxine (BDH or Merck) solution (1 mg/ml in ethanol), and 200 μl acetate buffer 0.3 M pH 5.6 after a short wait of about a minute. The In-111-oxinate is extracted into about 2 ml CHCl3, and is evaporated to dryness by heating in a water bath. The material is dissolved in 100 μl absolute ethanol and again evaporated and dissolved in 50 μl absolute ethanol. […]

[1] = Tissue distribution of In-111 in goats with bacterial abscesses (radioactivity per gram of tissue, scintillation counter); conditions: goat
Description: The distribution of In-111 was determined in the different organs and tissues of three goats. One goat was injected with In-111-oxinate labeled autologous granulocytes, one with plain In-111-oxinate and one with plain In-111-chloride. The injections with the isotope formulations took place 2 days before the animals were sacrificed and dissected. Pieces of abscess, organs and tissues were sampled, weighed and the radioactivity was measured in a scintillation counter. The radioactivities per gram of tissue were determined.
The tissue distribution of In-111 in the goat was determined to show the distribution of radioactivity among the organs.
In order to illustrate the process of the invention a goat with adjoining bacterial abscesses of 2 months and three days old was injected with In-111-oxinate (ca. 1 mCi). The goat was imaged by gamma camera the next day. […] The goat was sacrificed and the distribution of radioactivity between the different tissues and organs determined.
The goat that was intravenously injected with In-111-chloride was dissected two days after the injection, and the distribution of radioactivity among the different tissues and organs determined.

[2] = Description: The clearance of In-111 from the blood of the goats was followed after intravenous injection of In-111 in three different formulations, namely In-111-chloride, In-111-oxinate and In-111-oxinate labeled granulocytes, respectively, in order to determine the biological half life for each of these different formulations. After injection, 10 ml blood samples were taken at intervals. All blood samples were subjected to differential centrifugation in order to determine whether the radioactivity was localized in the plasma, platelets, red cell fraction or leukocytes. Platelet rich plasma (PRP) was prepared by centrifugation of heparinised blood at 200 g during 15 minutes. After sampling of the PRP (1 ml) the residue was centrifuged at 1600 g for 10 minutes. 1 ml samples were taken from the plasma layer (platelet poor plasma=PPP), from the interface between plasma and red cells (leukocytes) and from the red cell fraction. The radioactivities were determined and clearance was determined corrected for physical decay.
The clearance of In-111 from the blood of goats was followed after intravenous injection of In-111 in three different goats and formulations,namely, In-111-chloride, In-111-oxinate and In-111-oxinate labeled granulocytes, respectively, in order to determine the biological half-life of In-111.
The clearance of In-111 in a goat which was injected with In-111-oxinate labeled granulocytes was also studied.

blood cells = test: Washing of blood cells with PBS (binding of radioactivity to blood cells after injection); conditions: goat blood cells
[3] = intravenous, two days after the injection

## [Cl][111In]([Cl])[Cl] [In-111-chloride]
Bacterial abscesses
  abscess visibility by gamma camera, adjoining bacterial abscesses of 2 months and three days old: well-visible spot
Bacterial abscesses; ca. 1 mCi, accidental subcutaneous injection, twenty-four hours later
  abscess visibility by gamma camera, bacterial abscesses of 2 months and three days old, subcutaneous injection: distinct, well-visible spot
Bacterial abscesses; ca. 1 mCi, subcutaneous
  spread of radioactivity after subcutaneous injection: spread via the peripheral vascular system, not via the neck vein to the heart and the lungs
[1]
  accumulation of In-111 in the cell fraction of the blood (tissue distribution study): only a small amount of In-111 accumulated in the blood cells
  radioactivity in pus of the old and new abscesses: hardly any radioactivity
[1]; 2 days after injection
  radioactivity in the kidney: strongly labeled
  radioactivity of inflamed lymph node relative to a non-inflamed one: three
[1]; [3]
  accumulation of In-111 in fat, urine and gall: no significant accumulation of In-111
  accumulation of radioactivity in intraperitoneally penetrated part of the abscess: slightly higher accumulation of radioactivity, but the accumulation was less than in the old abscess in the In-111-oxinate study
  accumulation of radioactivity in the spleen and liver: moderate accumulations of radioactivity
  distribution of blood radioactivity between plasma and cells: Most of the radioactivity was in the plasma, not in the cells
  labeling of the blood: very moderately labeled
  radioactivity in tissue of old and new abscesses: moderate radioactivity, somewhat more than lymph node and muscle, far less than ovarium, uterus, lung and kidney
[2]; goat, intravenous
  clearance of indium from blood, four days: almost disappeared in four days
  clearance of indium from blood, level within two days: decline to a very low level of radioactivity within two days
Blood cells
  binding of radioactivity to blood cells on washing with PBS: could be easily washed out; also recorded: could be washed out by PBS

## [111In+3].[O-]c1cccc2cccnc12.[O-]c1cccc2cccnc12.[O-]c1cccc2cccnc12 [In-111-oxinate]
Bacterial abscesses
  abscess visibility by gamma camera, adjoining bacterial abscesses of 2 months and three days old: clear spot
[1]
  accumulation of In-111 in the cell fraction of the blood (tissue distribution study): strong accumulation of In-111 in the cell fraction of the blood, almost as much as the radioactivity per gram of tissue of the spleen
  accumulation of radioactivity in fat, muscle, marrow from the femur, gall, faeces, pancreas and urine: no significant accumulation of radioactivity
  accumulation of radioactivity in heart muscle: moderate accumulation of In-111
  radioactivity in pus of the old and new abscesses: little radioactivity
[1]; 2 months old abscess
  accumulation of In-111 in tissue of the old abscess: high accumulation of In-111, similar to the kidney and ovarium
[1]; 2 days after injection
  radioactivity of inflamed lymph node relative to a non-inflamed one: two
[1]; three days old abscess
  radioactivity accumulation in tissue of the new abscess: moderate radioactivity accumulation more than, for example, the lymph node and muscles, but far less than ovarium, uterus, lung, kidney, spleen and blood
[2]; another goat
  course of radioactivity in blood after injection (another goat): gradual decrease of radioactivity immediately after the goat was injected
  preference of the cells for the agent (another experiment in another goat): strong preference of the cells
[2]; another goat, sample had about an equal amount of plasma
  preference of indium-111 for white cells: no preference of indium-111 for white cells
[2]; goat, after injection
  time of optimal accumulation in the cell fraction of the blood: five
[2]; goat, intravenous
  In-111 activity level in blood after two days: very slow decline of the activity level
  In-111 level in the blood, first two days: gradual increase of In-111 in the blood for two days
  radioactivity in the blood one week later: still a significant amount of radioactivity in the blood
[2]; goat, intravenous, clearance study
  preference of In-111 for the cell fraction of the blood: clear preference of In-111 to accumulate in the cell fraction of the blood
Blood cells
  binding of radioactivity to blood cells on washing with PBS: firmly bound
